Assay results reported in DBAASP.
Values after ≈ are worked out from the molar mass of the structure shown. Values joined by “and” are separate entries in the source; they are usually repeats but may differ in a detail not shown here. Equal entries are not always repeated. Blank lines part the entries; values can stand above or below the compound they belong to.

Legend:
Test in all cases: ≥ marks a high value that may be exact or a test limit, other limits are often not marked, values filed in µg/mL are converted to µM
[1] = system: Candida albicans CGMCC 2.2411
[2] = system: Enterococcus faecalis CVCC 3936
[3] = system: Streptococcus suis CVCC 606
[4] = system: Escherichia coli CVCC 1515
[5] = system: Salmonella enterica subsp. enterica serovar Pullorum CVCC 1809
[6] = system: Escherichia coli CVCC 195
[7] = system: Bacillus subtilis ATCC 6633
[8] = system: Listeria ivanovii ATCC 19119
[9] = system: Salmonella enterica subsp. enterica serovar Pullorum CVCC 533
[10] = system: Salmonella enterica subsp. enterica serovar Typhimurium ATCC 14028
[11] = system: Pseudomonas aeruginosa CICC 10419
[12] = system: Staphylococcus aureus ATCC 43300
[13] = system: Staphylococcus aureus MW2
[14] = system: Acinetobacter baumannii ATCC 7978
[15] = system: Staphylococcus aureus ATCC 29231
[16] = system: Enterococcus faecium E007
Escherichia coli DH10B = system: Escherichia coli DH10B
[17] = system: Saccharomyces cerevisiae BY4741
Leuconostoc lactis = system: Leuconostoc lactis
Escherichia coli = system: Escherichia coli
Micrococcus luteus = system: Micrococcus luteus
Streptococcus uberis = system: Streptococcus uberis
Pasteurella multocida = system: Pasteurella multocida
Bacillus cereus = system: Bacillus cereus
Listeria innocua = system: Listeria innocua
Staphylococcus aureus = system: Staphylococcus aureus
[18] = system: Staphylococcus epidermidis
[19] = system: Candida tropicalis KCTC 7221
[20] = system: Trichosporon beigelii KCTC 7707
[21] = system: Fusarium oxysporum KCTC 16909
[22] = system: Candida parapsilosis CCARM 14016
[23] = system: Candida krusei CCARM 14017
[24] = system: Fusarium verticillioides KCTC 6149
Candida albicans = system: Candida albicans
Staphylococcus aureus MR = system: Staphylococcus aureus MR
[25] = system: Pseudomonas aeruginosa ATCC 27853
[26] = system: Staphylococcus aureus ATCC 49476

MIC [1]: 25.8 µM (≈ 63.9 µg/mL) | MIC [2]: 25.8 µM (≈ 63.9 µg/mL) | MIC [3]: 25.8 µM (≈ 63.9 µg/mL) | MIC [4]: 25.8 µM (≈ 63.9 µg/mL) | MIC [5]: 25.8 µM (≈ 63.9 µg/mL) | MIC [6]: 25.8 µM (≈ 63.9 µg/mL) | MIC [7]: 25.8 µM (≈ 63.9 µg/mL) | MIC [8]: 25.8 µM (≈ 63.9 µg/mL) | MIC [9]: 25.8 µM (≈ 63.9 µg/mL) | MIC [10]: > 25.8 µM | MIC [11]: 25.8 µM (≈ 63.9 µg/mL) | MIC [12]: > 25.8 µM
Structure (SMILES): CC(C)[C@H](N)C(=O)N[C@H]1CSSC[C@@H](C(=O)N[C@@H](Cc2cnc[nH]2)C(=O)N[C@@H](CCCN=C(N)N)C(=O)N[C@@H](CCCN=C(N)N)C(=O)N[C@@H](C)C(=O)N[C@@H](CC(N)=O)C(=O)N[C@@H](CC(N)=O)C(=O)NCC(=O)N[C@H](C(=O)N[C@@H](CCCN=C(N)N)C(=O)N[C@H](C(=O)O)C(C)C)C(C)C)NC(=O)[C@H](CC(N)=O)NC(=O)[C@H](Cc2c[nH]c3ccccc23)NC(=O)[C@H](C)NC(=O)[C@H](Cc2ccccc2)NC(=O)CNC(=O)[C@H](CCCN=C(N)N)NC(=O)[C@H](Cc2ccc(O)cc2)NC(=O)[C@H](C(C)C)NC1=O [VCVYRGFAWNCHRRANNGVRV]

Structure (SMILES): CC[C@H](C)[C@H](NC(=O)[C@H](CCCCN)NC(=O)[C@H](CCCCN)NC(=O)[C@@H](N)CC(C)C)C(=O)NCC(=O)N[C@@H](CCCCN)C(=O)N[C@@H](CCCCN)C(=O)N[C@H](C(=O)N[C@@H](Cc1c[nH]c2ccccc12)C(=O)N[C@@H](CCCN=C(N)N)C(=O)N[C@H](C(=O)NCC(=O)N[C@@H](Cc1c[nH]c2ccccc12)C(=O)N[C@@H](CC(N)=O)C(=O)N[C@H](C(=O)N[C@@H](CCCN=C(N)N)C(=O)O)[C@@H](C)O)C(C)C)[C@@H](C)CC [LKKIGKKIWRVGWNTR]
MIC [13]: ≥ 64.5 µM | MIC [14]: ≥ 64.5 µM | MIC [15]: ≥ 64.5 µM | MIC [16]: ≥ 64.5 µM

MIC (Escherichia coli DH10B): 20 µM (≈ 49.8 µg/mL) | MIC [17]: 10 µM (≈ 24.9 µg/mL)
Structure (SMILES): CSCC[C@H](NC(=O)[C@@H]1CCCN1C(=O)[C@H](CCC(N)=O)NC(=O)CNC(=O)[C@@H]1CCCN1C(=O)[C@H](CCCCN)NC(=O)[C@H](CC(C)C)NC(=O)[C@H](CCC(N)=O)NC(=O)[C@H](CC(C)C)NC(=O)[C@H](Cc1c[nH]c2ccccc12)NC(=O)[C@H](Cc1cnc[nH]1)NC(=O)[C@H](Cc1c[nH]c2ccccc12)NC(=O)[C@H](Cc1ccccc1)NC(=O)[C@H](CCCN=C(N)N)NC(=O)[C@H](CC(N)=O)NC(=O)[C@H](CC(C)C)NC(=O)[C@H](Cc1ccccc1)NC(=O)[C@@H](N)CCCCN)C(=O)N[C@@H](Cc1ccc(O)cc1)C(=O)O [KFLNRFWHWLQLKPGQPMY]

MIC (Leuconostoc lactis): ≥ 40.8 µM | MIC (Escherichia coli): > 40.8 µM | MIC (Micrococcus luteus): ≥ 40.8 µM | MIC (Streptococcus uberis): 20.4 µM (≈ 50 µg/mL) | MIC (Pasteurella multocida): ≥ 40.8 µM | MIC (Bacillus cereus): ≥ 40.8 µM | MIC (Listeria innocua): ≥ 40.8 µM | MIC (Staphylococcus aureus): > 40.8 µM | MIC [18]: ≥ 40.8 µM
Structure (SMILES): CC[C@H](C)[C@H](NC(=O)[C@H](CO)NC(=O)[C@H](CO)NC(=O)[C@H](CCSC)NC(=O)[C@H](CC(C)C)NC(=O)CN)C(=O)NCC(=O)N[C@@H](CCCCN)C(=O)N[C@@H](C)C(=O)N[C@@H](CC(C)C)C(=O)NCC(=O)NCC(=O)N[C@@H](CC(C)C)C(=O)N[C@H](C(=O)N[C@H](C(=O)N[C@@H](CC(=O)O)C(=O)N[C@H](C(=O)N[C@@H](CC(C)C)C(=O)N[C@@H](CCCCN)C(=O)N1CCC[C@H]1C(=O)N[C@@H](CCCCN)C(=O)N[C@H](C(=O)N1CCC[C@H]1C(=O)N[C@@H](C)C(=O)N[C@@H](CO)C(=O)O)[C@@H](C)O)C(C)C)C(C)C)[C@@H](C)CC [GLMSSIGKALGGLIVDVLKPKTPAS]

MIC [19]: 4 µM and 2 µM | MIC [20]: 2 µM (≈ 5.2 µg/mL) | MIC [21]: 4 µM and 12 µM | MIC [22]: ≥ 64 µM | MIC [23]: 8 µM (≈ 20.8 µg/mL) | MIC [24]: ≥ 48 µM
Structure (SMILES): CC[C@H](C)[C@H](NC(=O)[C@H](C)NC(=O)[C@H](CCC(=O)O)NC(=O)[C@H](Cc1cnc[nH]1)NC(=O)[C@H](C)NC(=O)CNC(=O)[C@H](CCC(N)=O)NC(=O)[C@H](Cc1ccccc1)NC(=O)[C@@H](NC(=O)[C@H](CCCCN)NC(=O)[C@H](CCCCN)NC(=O)[C@H](C)NC(=O)[C@H](C)NC(=O)[C@H](CC(N)=O)NC(=O)[C@H](CC(C)C)NC(=O)CN)C(C)C)C(=O)N[C@@H](CCCCN)C(=O)N[C@@H](CC(C)C)C(=O)N[C@H](C(=O)N[C@@H](CC(N)=O)C(=O)N[C@@H](CC(N)=O)C(=O)N[C@@H](Cc1cnc[nH]1)C(=O)N[C@H](C(=O)N[C@@H](CCC(N)=O)C(N)=O)C(C)C)[C@@H](C)CC [GLNAAKKVFQGAHEAIKLINNHVQ]

MIC (Candida albicans): 22.4 µM (≈ 64 µg/mL) | MIC (Staphylococcus aureus MR): ≥ 179 µM | MIC [25]: 89.4 µM (≈ 256 µg/mL) | MIC [26]: ≥ 44.7 µM
Structure (SMILES): CC[C@H](C)[C@H](NC(=O)[C@H](C)NC(=O)[C@H](CCCCN)NC(=O)CNC(=O)[C@H](C)NC(=O)[C@H](CO)NC(=O)[C@H](Cc1ccccc1)NC(=O)[C@H](CC(C)C)NC(=O)CNC(=O)CNC(=O)[C@@H](NC(=O)[C@@H](NC(=O)[C@H](Cc1cnc[nH]1)NC(=O)[C@H](Cc1cnc[nH]1)NC(=O)[C@H](C)NC(=O)[C@H](C)N)[C@@H](C)CC)[C@@H](C)CC)C(=O)N[C@@H](Cc1cnc[nH]1)C(=O)N[C@@H](CCCN=C(N)N)C(=O)N[C@@H](CC(C)C)C(=O)N[C@H](C(=O)N[C@@H](CCCN=C(N)N)C(=O)N[C@@H](CCCN=C(N)N)C(=O)N[C@@H](CCCN=C(N)N)C(=O)N[C@@H](CCCN=C(N)N)C(=O)N[C@@H](CCCN=C(N)N)C(=O)O)[C@@H](C)CC [AAHHIIGGLFSAGKAIHRLIRRRRR]
